Reference: ChEMBL document CHEMBL3507680, “University of Dundee, Gates Library screen for HepG2 cell viability”

assay: Human HepG2 cell viability assay in 384 well format; format: toxicity, cell-based; design: dose 125 nL, time 70.5 hour; cytotoxicity at 70.5 h: concentration not given beside the values; conditions: HepG2 cells, read-out: Inhibition

Going from `Cc1cnn(CC2CCCCN2CCCS(C)(=O)=O)c1` (centres undefined) to `Cc1cnn(CC2CCCN2CCCS(C)(=O)=O)c1` (centres undefined), the cytotoxicity at 70.5 h rises from -2.88% to -2.25%.

First: COc1ccc(C(=O)N2CCCC(n3cc(C)cn3)C2)c(F)c1 (centres undefined)
Second: COc1ccc(CC(=O)N2CCCC(n3cc(C)cn3)C2)c(OC)c1 (centres undefined)
The cytotoxicity at 70.5 h of the first is higher: -3.25% for the first, -6.34% for the second.

First: Cc1ncncc1C(=O)N1CCCC(n2cccn2)C1 (centres undefined)
Second: O=C(c1ccn(-c2ccccc2)n1)N1CCCC(n2cccn2)C1 (centres undefined)
The cytotoxicity at 70.5 h of the first is higher: 8.65% for the first, -0.6% for the second.

Compared with `Cn1cc(CCC(=O)N2CCCC(n3cncn3)C2)cn1` (centres undefined), `COc1ccc(CC(=O)N2CCCC(n3cccn3)C2)cc1F` (centres undefined) is lower in cytotoxicity at 70.5 h: -0.386% for the first, -6.84% for the second.

Compared with `CCc1nc(C2CCCN2C(=O)c2ccc3c(c2)COC3)no1` (centres undefined), `CCc1nc(C2CCCN2C(=O)c2ccc3c(c2)nnn3C)no1` (centres undefined) is higher in cytotoxicity at 70.5 h: -2.9% for the first, 16.3% for the second.

Compared with `NC(=O)C1CCN(C(=O)NCc2ccccc2-n2cccn2)C1` (centres undefined), `CCN1CCN(C(=O)c2cc(C(=O)OC)nn2-c2ccccc2)CC1` is higher in cytotoxicity at 70.5 h: -4.02% for the first, 0.312% for the second.

First: CN(C(=O)Cc1ccc(F)cc1)C1CCN(c2ccccn2)CC1
Second: CCN1CCN(c2ccc(CNC(=O)c3ccccc3F)cn2)CC1
The cytotoxicity at 70.5 h of the first is lower: -1.36% for the first, -0.777% for the second.

Going from `CCNc1cc2c(nn1)CCN(C(=O)c1cc3ccccc3o1)C2` to `CC(C)c1nnc2n1CCN(CC(=O)N1CCc3ccccc3C1)C2`, the cytotoxicity at 70.5 h rises from -6.18% to 11.4%.

Compared with `Cc1cnn(CC2CCCCN2C(=O)c2ccc3nncn3c2)c1` (centres undefined), `Cc1nc(CC(=O)N2CCCCC2Cn2cccn2)cs1` (centres undefined) is higher in cytotoxicity at 70.5 h: -3.43% for the first, 25.2% for the second.

First: Cc1cnc(CN(C)C2CCN(Cc3nc4ccccc4s3)C2)o1 (centres undefined)
Second: Cc1nc(C2CCCN(C(=O)COCc3ccccc3)C2)no1 (centres undefined)
The cytotoxicity at 70.5 h of the first is higher: 51.7% for the first, -12.6% for the second.

Compared with `Cc1ccc(C(=O)N(C)Cc2cc(C)on2)cn1`, `Cc1cc(CN(C)C(=O)c2ccc(N(C)C)nc2)no1` is lower in cytotoxicity at 70.5 h: -2.86% for the first, -7.16% for the second.

First: CCN1CCN(c2ccc(CNC(=O)c3cnn(C)c3C)cn2)CC1
Second: Cn1ccc(C(=O)NCc2ccc(N3CCCCCC3)nc2)cc1=O
The cytotoxicity at 70.5 h of the first is higher: -8.48% for the first, -12.5% for the second.

Compared with `CCOc1ncccc1CNC(=O)NC(C)Cn1cccn1` (centres undefined), `CC(Cn1cccn1)NC(=O)CCC(=O)c1cccs1` (centres undefined) is lower in cytotoxicity at 70.5 h: 25.9% for the first, -11.2% for the second.

Going from `COc1ccccc1N1CCN(C(=O)NC(C)c2nncn2C)CC1` (centres undefined) to `CC(NC(=O)N1CCN(c2ccccc2O)CC1)c1nncn1C` (centres undefined), the cytotoxicity at 70.5 h rises from -5.73% to 1.59%.

First: CC(NC(=O)N(C)CCCOc1ccccc1)c1nncn1C (centres undefined)
Second: CC(NC(=O)N(C)CCOc1ccccc1F)c1nncn1C (centres undefined)
The cytotoxicity at 70.5 h of the first is lower: -5.85% for the first, -4.64% for the second.

Going from `COc1ncccc1CNC(=O)NCCNS(C)(=O)=O` to `COCC(=O)NCc1cccc(Br)c1`, the cytotoxicity at 70.5 h rises from -2.56% to 19.4%.

Compared with `Cc1ccccc1OCCN(C)C(=O)NC(C)c1nncn1C` (centres undefined), `Cc1cccc(N2CCN(C(=O)NC(C)c3nncn3C)CC2)c1C` (centres undefined) is higher in cytotoxicity at 70.5 h: -6.52% for the first, -3.82% for the second.

Compared with `CCOc1ccc(C(=O)N2CCCS2(=O)=O)cc1OC`, `Cc1ccc(C)c(S(=O)(=O)CCN2CCc3c(ncn3C)C2)c1` is higher in cytotoxicity at 70.5 h: -4.2% for the first, 16% for the second.

Going from `CCCC(=O)N(C)CC(=O)Nc1ccc(Br)cn1` to `OC(CNCCn1cccn1)c1ccc(Br)cc1` (centres undefined), the cytotoxicity at 70.5 h rises from -2.34% to 15.8%.

Going from `c1cnn(CC2CCCCN2Cc2nc(-c3ccsc3)no2)c1` (centres undefined) to `CCc1nc(C2CCCN2C(=O)c2ccc(N3CCCC3)nn2)no1` (centres undefined), the cytotoxicity at 70.5 h rises from -4.27% to -3.36%.

Going from `CCc1nc(C2CCCN2C(=O)c2cnc[nH]2)no1` (centres undefined) to `Cc1nccc(C(=O)N2CCCC2c2c(C)nn(C)c2C)n1` (centres undefined), the cytotoxicity at 70.5 h rises from -7.25% to 16.2%.

Compared with `Cc1cc(NC(=O)CN(CC2CCOC2)C2CC2)no1` (centres undefined), `Cc1cn2c(n1)CCC(NC(=O)c1cc(C3CC3)[nH]n1)C2` (centres undefined) is lower in cytotoxicity at 70.5 h: 0.647% for the first, -4.74% for the second.

Compared with `CC(C)c1noc(C(C)N2CCN(Cc3nnc(C4CC4)o3)CC2)n1` (centres undefined), `C1CN(Cc2noc(C3CC3)n2)CCN(Cc2nnc(C3CC3)o2)C1` is higher in cytotoxicity at 70.5 h: -3.65% for the first, 15.4% for the second.

Going from `Cc1nc(C)n(CC2CN(CCCOc3ccc(F)cc3)CCO2)n1` (centres undefined) to `Cc1nc(C)n(CC2CN(CCOc3cccc(F)c3)CCO2)n1` (centres undefined), the cytotoxicity at 70.5 h rises from -17.9% to -9.64%.

First: CS(=O)(=O)c1cccc(C(=O)NCCCN2CCc3ccccc3C2)c1
Second: O=C(NCCCN1CCc2ccccc2C1)c1ccccc1Br
The cytotoxicity at 70.5 h of the first is higher: 19.1% for the first, -7.72% for the second.

First: CCC(C#N)NC(=O)c1cc(Br)c2c(c1)OCCO2 (centres undefined)
Second: COCC(c1cccc(C(F)(F)F)c1)N(C)C(=O)c1cc(C)no1 (centres undefined)
The cytotoxicity at 70.5 h of the first is lower: -9.18% for the first, 20% for the second.

Compared with `CNc1snc(C)c1C(=O)N1CCCC(n2ccnc2C)C1` (centres undefined), `Cc1nn(C)c(C)c1CC(=O)N1CCC(N(C)c2cccnn2)CC1` is higher in cytotoxicity at 70.5 h: -4.48% for the first, 20.4% for the second.

Compared with `Cc1nc(C2CCCN2Cc2cc(=O)n(C)c(=O)n2C)no1` (centres undefined), `Cc1nc(C2CCCN2CCCS(=O)(=O)N(C)C)no1` (centres undefined) is higher in cytotoxicity at 70.5 h: -1.72% for the first, 22.2% for the second.

Going from `Cn1cc(Cl)cc1C(=O)N1CCN(Cc2ccsc2)CC1` to `CCCn1[nH]cc/c1=N\C(=O)CN1CCn2c(nnc2C2CC2)C1`, the cytotoxicity at 70.5 h rises from 0.559% to 8.11%.

For `O=C(CN1CCC(c2cccc(F)c2)C1)NCC(F)(F)F` (centres undefined), the cytotoxicity at 70.5 h was 26.9%.
